Results published in article PMC7520419 (The AAPS Journal, 2020).
In brackets after ≈: the same amount, converted by molar mass. Counter-ions that a name gives are not always drawn. Like-named read-outs stand apart in the source and are kept apart here.

Legend:
[1] = pKa
[2] = Solubility measurement in biorelevant media (FaSSIF-V2, FeSSIF-V2); conditions: 37 °C, thermodynamic from solid
Experimental: (§1) The solubility of the drug substances was determined in biorelevant media as well as in aqueous buffers at different pH. Fasted state simulated gastric fluid (FaSSGF) ([37]), fasted state simulated intestinal fluid (FaSSIF-V2) ([38]), and fed state simulated intestinal fluid (FeSSIF-V2) ([39]) were prepared according to the instructions provided by Biorelevant (Biorelevant.com Ltd., London, UK). […] For neutral compounds, solubility was determined at pH 2, pH 4, and pH 7.
(§2) For freely soluble compounds, the extent of solubilization was measured only up to 10 mg/mL.

[3] = cited from earlier work; for Observed AUC(0-inf) Fasted / Observed Cmax Fasted / Observed AUC(0-inf) Fed / Observed Cmax Fed / Observed AUC Ratios (Fed/Fasted) / Observed Cmax Ratios (Fed/Fasted): ref published clinical data (Table I)
[4] = PBPK food effect modeling (Simcyp V17.1 and/or GastroPlus V9.5; Model 1 / Model 2); design: species or system human
[5] = Solubility measurement in aqueous buffer solutions; conditions: pH 6.5, aqueous buffer, thermodynamic from solid
Experimental: as §1, §2

[6] = design: method as in Table I reference column; conditions: not generated within this working group; ref Table I; cited from earlier work
[7] = not generated within this working group; ref Table I; cited from earlier work
[8] = Effective human jejunum permeability (Peff,man) used in the PBPK model; type: in vitro ADME; conditions: human, 1 h
Experimental: Permeation rates of the compounds, including reference compounds, were measured in the apical-to-basolateral (AB) direction. The donor and receiver wells were sampled immediately after application of the compound to the donor well to determine baseline concentrations, and again after 1 h. Quantification was done using high-performance liquid chromatography combined with mass spectrometry (HPLC-MS/MS) analysis and monolayer integrity was verified by analyzing the receiver samples for LuY fluorescence in a plate reader.

[9] = test system: Caco-2; conditions: not generated within this working group; ref Table I; cited from earlier work
[10] = FaSSIF-V2 (fasted state simulated intestinal fluid), FaSSIF solubility
[11] = FeSSIF-V2 (fed state simulated intestinal fluid), FeSSIF solubility
[12] = clinically observed PK change (AUC, Cmax) fed vs fasted, compiled by literature search
[13] = direction, AUC and/or Cmax ratio fed to fasted, BE criteria 0.8–1.25, ref drug label

Structure (SMILES)	pKa ([1]; pKa (b, basic))	Observed AUC(0-inf) Fasted ([3]; Model 2) [ng·h/mL]	Observed Cmax Fasted ([3]; Model 2) [ng/mL]	Observed AUC(0-inf) Fed ([3]; Model 2) [ng·h/mL]	Observed Cmax Fed ([3]; Model 2) [ng/mL]	Observed AUC Ratios (Fed/Fasted) ([3]; Model 2)	Observed Cmax Ratios (Fed/Fasted) ([3]; Model 2)	Food Effect [3, 12]	Food Effect [3, 13]	AUC Ratio of Ratios (Sim'd / Obs'd) ([4]; Model 2)	Cmax Ratio of Ratios (Sim'd / Obs'd) ([4]; Model 2)	Observed AUC(0-inf) Fasted ([3]; Model 1) [ng·h/mL]	Observed Cmax Fasted ([3]; Model 1) [ng/mL]	Observed AUC(0-inf) Fed ([3]; Model 1) [ng·h/mL]	Observed Cmax Fed ([3]; Model 1) [ng/mL]	Observed AUC Ratios (Fed/Fasted) ([3]; Model 1)	Observed Cmax Ratios (Fed/Fasted) ([3]; Model 1)	AUC Ratio of Ratios (Sim'd / Obs'd) ([4]; Model 1)	Cmax Ratio of Ratios (Sim'd / Obs'd) ([4]; Model 1)	Apparent permeability (Caco-2) [9]	also measured
CC1(C)CCC(CN2CCN(c3ccc(C(=O)NS(=O)(=O)c4ccc(NCC5CCOCC5)c([N+](=O)[O-])c4)c(Oc4cnc5[nH]ccc5c4)c3)CC2)=C(c2ccc(Cl)cc2)C1 [Venetoclax]	10.3	2080	150	7100	500	3.41	3.33	Positive (positive if the ratio of fed > fasted)	Positive (positive if the ratio of fed > fasted)	0.79	0.75										pKa ([1]; pKa (a, acidic)): 3.4; solubility [2, 10]: 0.0337 µg/mL (≈ 0.0388 µM); solubility [2, 11]: 26.4 µg/mL (≈ 30.4 µM); solubility [5]: 6 µg/mL (≈ 6.91 µM)
Cc1ccc(-c2ncc(Cl)cc2-c2ccc(S(C)(=O)=O)cc2)cn1 [Etoricoxib]	4.5	44400	2890	42200	1890	0.95	0.65	Negative (negative if ratio fasted > fed)	Negative (negative if ratio fasted > fed)	1.06	1.25	44400	2890	42200	1890	0.95	0.65	1.05	0.97	52.3 (Caco-2)^^ × 10^−6 cm/s	food effect (FE) direction ([3]; ref drug label): negative FE; FaSSIF solubility [6]: 67^^ μg/ml; FeSSIF solubility [6]: 95^^ μg/ml; Solubility at pH 6.5 [7]: 67^^ μg/ml; Effective permeability [8]: 480 ×10⁻⁶ cm/s
CN/C(=N/CCSCc1nc[nH]c1C)NC#N [Cimetidine]	6.9	5350	890	4580	800	0.86	0.90	None (none if no significant change in AUC and Cmax with food)		1.19	1.10	4880	900	4150	810	0.85	0.90	1.14	0.87	5.4 (Caco-2)^^ × 10^−6 cm/s	solubility [2, 10]: 22000 µg/mL (≈ 87200 µM); solubility [2, 11]: 21500 µg/mL (≈ 85200 µM)
CCc1nn(CCCN2CCN(c3cccc(Cl)c3)CC2)c(=O)n1CCOc1ccccc1 [Nefazodone HCl]		1540	301	1240	295	0.80	0.98		Negative (negative if ratio fasted > fed)	1.47	1.05	1540	301	1240	295	0.80	0.98	0.97	0.84	11 (Caco-2) ^^ × 10^−6 cm/s	pKa (b, basic) [1]: 6.50b; solubility [2, 10]: 1390 µg/mL; solubility [2, 11]: 3100 µg/mL; food effect (FE) direction ([3]; ref drug label): negative FE; Effective permeability [8]: 220 ×10⁻⁶ cm/s; solubility [5]: 5380 µg/mL
Cc1[nH]c2ccccc2c1CCNCc1ccc(/C=C/C(=O)NO)cc1 [Panobinostat]	9	128	17.5	108	9.8	0.85	0.56	None (none if no significant change in AUC and Cmax with food)	None (none if no significant change in AUC and Cmax with food)	1.25	1.42	148	17.5	124	9.8	0.84	0.56	1.25	0.61	11 (Caco-2)^^ × 10^−6 cm/s	pKa ([1]; pKa (a, acidic)): 8.35; FaSSIF solubility [6]: 140^^ μg/ml; FeSSIF solubility [6]: 230^^ μg/ml; Solubility at pH 6.5 [7]: 261^^ μg/ml; Effective permeability [8]: 230 ×10⁻⁶ cm/s
